Test results: patent publication EP4410284A1, “COMPOUND AND METHOD FOR THE TREATMENT OF ZELLWEGER SPECTRUM DISORDER” (Apteeus, priority 2023, dated 2024)
Structures can show the parent of a compound that is named as a salt. Where two headings read alike, the source gives them in different places.

How the values were obtained:
GM16513 cells [1] = experiment: Beta-oxidation of d4-C24:0 (LC-MS/MS); type: cell-based, human
Procedure: Degradation (to d4-C16:0) and elongation (to d4-C26:0 and d4-C28:0) of d4-VLCFA (very long chain fatty acid) in the cells was measured using d4-C24:0 as substrate (D-6145-CDN isotopes). D4-C24:0 was solubilized in culture medium using α-cyclodetrin, with a molar ratio of d4-C24:0:α-cyclodextrin 1:50. Cyclodextrins, which are cyclic oligosaccharides, are commonly used to solubilize fatty acids by complexation, for supplementation of cell culture media, and serve as vehicle to deliver fatty acids to the cells. Cyclodextrins have a polar surface and a hydrophobic cylindrical cavity that can bind and solubilize a wide variety of hydrophobic molecules, such as fatty acids, while remaining soluble in water. The assay was performed in T75 culture flasks for 3 or 10 days. The medium was replaced by fresh medium every 2-3 days and supplemented with d4-C24:0 for the last 3 days. After 3 or 10 days, cells were harvested and lysated in water (100-200 µL) by freeze/thaw cycle and sonication for 5 min. Total proteins were quantified using BCA assay and 100 µg of total proteins were used for each sample.
After cell lysis, the samples were dried using a rotating evaporator (Genevac EZ-2, SP Scientific), set at 40°C for 2h under vacuum. After evaporation, a hydrolysis mix consisting of 90% acetonitrile and 10% NaOH 1N in water was added to the samples. The samples were incubated for 1h at room temperature under stirring (300 rpm). After hydrolysis, the samples were evaporated using a Genevac device, under vacuum, at 40°C for 2h.
Derivation of free fatty acids was done using a 2.5 mg/mL Na2CO3 solution in DMF and a 2.5 mg/mL TMAE (trimethylammoniumethyl) reagent solution in DMF. The solutions were mixed in a 1:1 ratio, and 200 µL of the mix was added to dry samples to be derived. For the derivation, the samples were incubated for 3h at 50°C. DMF was then evaporated using a Genevac™ device, under vacuum, at 60°C for 4h.
Before injection, the samples were solubilized in a 90/10 acetonitrile/isopropanol mixture with 1% HCl. After solubilization, the samples were stirred and centrifuged at 4000 rpm for 20 min at 10°C.
For the separation of the derived fatty acids by liquid chromatography, a Waters Acquity ultra-performance liquid chromatography (UPLC) system (Acquity I-Class, Waters) was used. […]
After separation by liquid chromatography, the analytes were subjected to MS analysis using a Waters Xevo TQSmicro system (Waters). […] The molecules were analyzed using MRM (multiple reaction monitoring) mode, with the main daughter ion for each derived fatty acid corresponding to the loss of a trimethylammonium moiety (m/z 59). Derived FAs with a chain length from 16 to 28, with no or one unsaturation, were analyzed. […] The acquired data were analyzed by the Waters MassLynx software.

PEX405 cells [2] = type: cell-based; settings: 3 days, PI positive cells (dead cells)
Procedure: (§4) Images were acquired using the EnSight multimode plate reader (PerkinElmer) and analysis was done using Columbus analysis software (PerkinElmer). […] Then the total number of cells and the % of dead cells was calculated.
(§5) All HDAC inhibitors were tested at 1.3 and 10 µM for 3 days on GM16513 and PEX405 cells.

GM16513 cells [3] = type: cell-based; settings: 3 days, PI positive cells (dead cells)
Procedure: as §4, §5

GM 17398 = experiment: Catalase import immunofluorescence (% importing cells); type: cell-based, human; settings: GM 17398 (PEX26 deficient); for Importing cells (%): at the lower dose leading to the maximum effect (see E24)
Procedure: (§1) Primary fibroblasts were seeded at 500-700 cells per well in 384-well plates and grown at 37°C overnight. Cells were treated with test compounds or 0.1% DMSO for 3 days. After 3 days and a wash with PBS, cells were fixed with 4% paraformaldehyde (Electron Microscopy Sciences) in PBS for 20 minutes. After 3 washes with PBS, the cells were permeabilized and blocked with 0.3% Triton X-100, 1% BSA in PBS for 30 minutes at room temperature followed by 3 washes with 1% BSA in PBS. The cells were incubated with a rabbit Catalase polyclonal antibody (#12980 Cell signaling) overnight at 4°C. Following 3 washes with PBS containing 0.1% Tween-20, the cells were incubated for 1 h at room temperature with a conjugated goat anti-rabbit secondary antibody Alexa Fluor 647 (Ab150083-Abcam). The cells were then washed 3 times with PBS and Hoechst 33342 (H3570-ThermoFisher Scientific) + HCS Cellmask Blue (H32720 - ThermoFisher Scientific) staining was performed at 0.1 µg/ml and 0.4 µg/mL respectively for 30 minutes at room temperature. The cells were finally washed 3 times with PBS and fluorescent images were acquired using the INCell Analyzer 6000 imaging platform (GE Healthcare Life Sciences).
(§2) Images analysis was done using Columbus analysis software (PerkinElmer). DAPI channel was used to find nuclei (Hoechst 33342) and cytoplasm (HCS CellMask Blue) and border objects were removed. Cy5 channel (AlexaFluor 647) was used to find spots corresponding to peroxisomes which correctly import catalase. Cells were classified as importing or non-importing cells using a linear classifier method after training with images of wells containing Healthy cells and PEX1 deficient cells. The number of importing or non-importing cells was calculated. Finally, results were expressed as % of importing cells.
(§3) Among the HDAC inhibitors of example 2, 4 were tested on other cells which are PEX1, PEX6 or PEX26 deficient.

PEX304 = experiment: as above; type: cell-based, human; settings: PEX304 (PEX1); for Importing cells (%): at the lower dose leading to the maximum effect (see E14)
Procedure: as §1, §2, §3

PEX607 = experiment: as above; type: cell-based, human; settings: PEX607 (PEX6); for Importing cells (%): at the lower dose leading to the maximum effect (see E18)
Procedure: as §1, §2, §3

GM11335 = experiment: as above; type: cell-based, human; settings: GM11335 (PEX26); for Importing cells (%): at the lower dose leading to the maximum effect (see E20)
Procedure: as §1, §2, §3

PEX506 = experiment: as above; type: cell-based, human; settings: PEX506 (PEX6); for Importing cells (%): at the lower dose leading to the maximum effect (see E16)
Procedure: as §1, §2, §3

GM 16865 = experiment: as above; type: cell-based, human; settings: GM 16865 (PEX26); for Importing cells (%): at the lower dose leading to the maximum effect (see E22)
Procedure: as §1, §2, §3

PEX405 cells [4] = experiment: Catalase import immunofluorescence, high-content screening (% importing cells); type: cell-based, human; settings: for Concentration (lower dose leading to the maximum effect) / Importing cells (%): PEX405 (PEX1); for Importing cells (%): at the lower dose leading to the maximum effect (see E12); for % Importing cells: PEX405 cells, 3 days
[5] = 0.5 µM for 3 or 10 days, compared to non-treated cells

| Compound | % PI+ cells (PEX405 cells [2]; 1.3 µM) | % PI+ cells (PEX405 cells [2]; 10 µM) | % PI+ cells (GM16513 cells [3]; 1.3 µM) | % PI+ cells (GM16513 cells [3]; 10 µM) | Concentration (lower dose leading to the maximum effect) (GM 17398) | Importing cells (%) (GM 17398) | Concentration (lower dose leading to the maximum effect) (PEX304) | Importing cells (%) (PEX304) | Concentration (lower dose leading to the maximum effect) (PEX607) | Importing cells (%) (PEX607) | Concentration (lower dose leading to the maximum effect) (GM11335) | Importing cells (%) (GM11335) | Concentration (lower dose leading to the maximum effect) (PEX506) | Importing cells (%) (PEX506) | Concentration (lower dose leading to the maximum effect) (GM 16865) | Importing cells (%) (GM 16865) | Concentration (lower dose leading to the maximum effect) (PEX405 cells [4]) | Importing cells (%) (PEX405 cells [4]) | % Importing cells (PEX405 cells [4]; 1.3 µM) | % Importing cells (PEX405 cells [4]; 10 µM) | further results |
| --- | --- | --- | --- | --- | --- | --- | --- | --- | --- | --- | --- | --- | --- | --- | --- | --- | --- | --- | --- | --- | --- |
| O=C(/C=C/c1cccc(S(=O)(=O)Nc2ccccc2)c1)NO [Belinostat] | 1% | 42% | 4% | 21% | 2.5 µM | 0% | 2.5 µM | 11% | 0.85 µM | 43% | 0.85 µM | 30% | 0.25 µM | 64% | 0.85 µM | 35% | 2.5 µM | 41% | 52% | 27% | relative d4-VLCFA levels (C26, C28) (GM16513 cells [1]; [5]): decrease; shortest d4-FA (C16, C18) levels (GM16513 cells [1]; [5]): increase |
| CCN(CC)Cc1ccc2cc(COC(=O)Nc3ccc(C(=O)NO)cc3)ccc2c1 [Givinostat (hydrochloride monohydrate), Givinostat] | 3% | 41% | 6% | 29% | 2.5 µM | 0% | 0.85 µM | 5% | 0.25 µM | 42% | 0.087 µM | 20% | 0.087 µM | 69% | 0.25 µM | 20% | 0.25 µM | 13% | 12% | 6% | d4-C16,C18,C20 and C22 levels (GM16513 cells [1]; 3 days of treatment, dose response manner): increase |
